Measurements from article PMC3124137 (Experimental Diabetes Research, 2011).
Entries after “also recorded” stand apart in the source; their conditions may differ.

Key:
[1] = tested on: nitric oxide synthase production by endothelial cells; conditions: ref 28 (Dong et al.); cited from earlier work
Excerpt: (§1) Furthermore, this effect was eliminated upon the removal of the endothelial lining.

[2] = molecular target: T1, GLP-1 receptor at the coronary endothelium (Rattus norvegicus, UniProt P32301); assay: Perfusion of rat heart with ^125I-GLP-1: binding at the coronary endothelium (buffer alone, CHAPS-untreated); set-up: species or system rat (male Sprague-Dawley)
T1 construct: from tissue; host or cells: in situ perfused heart of male Sprague-Dawley rats (normal, streptozotocin-diabetic and treated groups)
T1 sequence (P32301 22-463): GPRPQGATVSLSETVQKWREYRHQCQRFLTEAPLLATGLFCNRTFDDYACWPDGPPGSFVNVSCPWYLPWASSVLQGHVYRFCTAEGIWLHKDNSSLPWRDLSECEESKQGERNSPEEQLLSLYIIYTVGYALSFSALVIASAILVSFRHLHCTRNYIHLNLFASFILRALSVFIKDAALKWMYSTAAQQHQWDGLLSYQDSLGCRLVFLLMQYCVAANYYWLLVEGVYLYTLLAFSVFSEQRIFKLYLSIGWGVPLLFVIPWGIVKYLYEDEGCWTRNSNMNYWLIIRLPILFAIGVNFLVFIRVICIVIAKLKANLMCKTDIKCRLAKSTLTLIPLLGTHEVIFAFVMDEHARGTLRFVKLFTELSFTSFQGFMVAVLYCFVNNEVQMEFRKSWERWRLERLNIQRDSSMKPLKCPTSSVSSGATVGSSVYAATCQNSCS
Protocol: (§2) In addition, the left and right lungs were tied in order to block the blood flow to them and to other organs. The aorta was slightly cut, and a polyethylene catheter was inserted (from cephalad to caudad) into its lumen to reach the aortic valve. The right atrium was punctured, and another catheter was inserted to carry out the perfusate. Both catheters were secured with a suture. A 50 mL syringe filled with heparinized Ringer-Lock buffer containing 20 meq/L K ^+, oxygenated with 95% O2, 5% CO2 at 37°C linked to an infusion pump was attached to the inlet. This solution cleared the heart from blood and clots for 15 minutes; infusion of a Ringer-Lock buffer solution for another 15 minutes cleared the heart from heparin. These steps were followed by the perfusion of a buffer containing 8.25 × 10^−4 nM/L [^125I] […] The perfusate was collected for 20 minutes at specific time intervals (between 0-1, 1-2, 2-3, 3-4, 4-5, 5-6, 6-7, 7-8, 8-9, 9-10, 10–12, 12–15, 15–20 minutes); after each collection, 500 μL of the sample was put in a liquid scintillation vial containing 4 mL of Ecolume scintillation cocktail, which was later assayed for radioactivity by a liquid scintillation analyzer. […]

[3] = Plasma active GLP-1 (ELISA); format: in vivo, rat (male Sprague-Dawley); conditions: STZ-diabetic rats; active GLP-1 (7–36 and 7–37) by ELISA over one month, N = 6
Protocol: (§3) Groups D, DI, DE, DA, DIA and DEA were induced to type 1 diabetes mellitus by a single intravenous injection of streptozotocin (STZ; 85 mg/kg bw) (Sigma Chemical Co., Saint Louis, Mo, USA) in saline acidified to pH 4.5 with 0.1 M citrate buffer. Three days later, nonfasting blood glucose level was measured using Accu-Chek (Accu-Chek Instant Test; Roche Diagnostics GmbH, Mannheim, Germany); a level of ≥250 mg/dL confirmed type 1 diabetes mellitus.
Rats were anesthetized, and blood was collected from the sublingual vein on days 1, 7, 14, 21, and 28 of the treatment period, at a constant time range of 9 to 10 AM. […] A relative fluorescent unit (RFU) curve was plotted using these standards (Figure 1).

type 2 diabetic mice = conditions: cited from earlier work
[4] = tested on: left ventricular hypertrophy; conditions: compared with angiotensin receptor blockers; cited from earlier work
Excerpt: Diabetes mellitus currently affects more than 170 million individuals worldwide. Other than hyperglycemia, diabetes mellitus can cause a 2-3-fold increase in the occurrence of cardiovascular disease (CVD). […] Receptor signaling on the pancreas leads to enhanced insulin biosynth ...

[5] = molecular target: T2, GLP-1 receptor at the cardiomyocytes (Rattus norvegicus, UniProt P32301); assay: Perfusion of rat heart with ^125I-GLP-1: binding at the cardiomyocytes (CHAPS-treated); set-up: species or system rat (male Sprague-Dawley); conditions: STZ-diabetic rats, one month of treatment, compared with diabetic (D) and normal (N)
T2 construct: from tissue; host or cells: in situ perfused heart of male Sprague-Dawley rats (normal, streptozotocin-diabetic and treated groups)
T2 sequence (P32301 22-463): T1 sequence (P32301 22-463)
Protocol: as §2

[6] = tested on: streptozotocin-induced type 1 diabetic rats; assay: Blood glucose (Accu-Chek); format: in vivo, rat (male Sprague-Dawley); conditions: STZ-diabetic rats; for effect of treatment on blood glucose level: one month of treatment, N = 24, P < .05 significant
Protocol: as §3
(§4) All the animals were weighed weekly, and blood glucose levels were determined using Accu-Chek (Accu-Chek instant test, Roche Diagnostics GmbH, Mannheim, Germany) weekly during one month of treatment.

[7] = Body weight after one month of treatment; format: in vivo, rat (male Sprague-Dawley); conditions: STZ-diabetic rats, N = 24
Protocol: as §3, §4

[8] = in vivo; cited from earlier work
Excerpt: The intravenous injection of streptozotocin (STZ)—a glucosamine-nitrosourea antibiotic with structural similarity to glucose that is readily taken up by the pancreatic β cells—causes β cells toxicity and ultimately necrosis, leading to deficiency in insulin secretion. The use of Streptozotocin to induce type 1 diabetes in rats is advantageous, because it is easy, fast, and the effect of diabetes on the heart can be evaluated. Our aim was to assess the long-term effects of treatments on ...

[9] = cited from earlier work
Excerpt: as §1

[10] = in vivo; cited from earlier work; remark: listed apart in the source
Excerpt: Incretin mimetics have been introduced in the market to be used as therapies for diabetes mellitus [[2 ...

[11] = tested on: GLP-1 receptors on the human coronary endothelial cells; set-up: method as in earlier work; conditions: ref 27 (Nystrom et al.); cited from earlier work

For COCCCOc1cc(C[C@@H](C[C@H](N)[C@@H](O)C[C@H](C(=O)NCC(C)(C)C(N)=O)C(C)C)C(C)C)ccc1OC [Aliskiren], the “nitric oxide synthase production by endothelial cells” value [1] is listed as “significantly restored”, the “effect of treatment on GLP-1 binding affinity (τ) at the coronary endothelium” value ([2]; STZ-diabetic rats, one month of treatment, compared with diabetic (D) and normal (N)) is listed as “did not alter τ from diabetics in the CE; also recorded: no significant change in its affinity; also recorded: did not ameliorate it” and the “effect of treatment on K d of GLP-1 at the coronary endothelium” value ([2]; treated STZ-diabetic rats compared to the normal) is listed as “extremely significant increase in K d constant”. The “effect of treatment on plasma GLP-1 level” value [3] was “normalized”, the insulin sensitivity (type 2 diabetic mice) was “improves insulin sensitivity” and the left ventricular hypertrophy [4] was “reduce left ventricular hypertrophy as efficiently as angiotensin receptor blockers (ARBs)”. The “effect of treatment on GLP-1 binding affinity (τ) at the cardiomyocytes” value [5] was “did not lower the affinity”, the “fraction of treated rats with normal blood glucose levels” value ([6]; Aliskiren 50 mg/kg oral qd, after one month) was 12.5% and the “effect of treatment on blood glucose level” value [6] was “significantly decreased blood glucose levels compared to the untreated”.
In the case of “Exendin-4: GLP-1 analogue, GLP-1 receptor agonist (Sigma); group DE, 0.03 μg/kg ip bid”, the “body weight vs diabetic untreated” value [7] is reported as “significant increase in their body weight”, the “effect of treatment on plasma GLP-1 level” value [3] is reported as “normalized” and the “effect of treatment on blood glucose level” value [6] is reported as “Although not significant, Exendin-4 treatment showed slight improvement”.
In the case of Insulin glargine, the duration of action [8] is listed as under 24 h.
In the case of glucagon-like peptide-1 [GLP-1], the “vasodilation on GLP-1 infusion” value [9] is given as “induce vasodilation”, the physiologic half-life [10] is given as “very short physiologic half-life” and the “vasodilation on binding to GLP-1 receptors” value [11] is given as “induce vasodilation”.
